Here are results for 18 molecules from patent US20260193293A1, “PEPTIDES CAPABLE OF INHIBITING PROTEIN-PROTEIN INTERACTIONS AT GABAB1A SUBUNIT AND USES THEREOF” (UNIVERSITY OF COPENHAGEN, priority 2022, published 2026).

Molecules are shown by their SMILES. Like-named read-outs stand apart in the source and are kept apart here. Non-standard residues stand in square brackets, D forms with d. Residues, ends and D or L forms follow the SMILES beside them. *: point of attachment. 1Nal = N[C@@H](Cc1cccc2ccccc12)C(=O)O; 2Nal = N[C@@H](Cc1ccc2ccccc2c1)C(=O)O; NMeV = CN[C@H](C(=O)O)C(C)C; Bn = c1ccc(C*)cc1; Sar = CNCC(=O)O

This assay addresses Sushi domains (SD1/2) protein. The assay is described as follows: Fluorescence polarization (FP) competition assay with AJAP-1probe, calculated Ki. To be noted: for fold increased affinity compared to Asp207Trp: relative to Asp207Trp mutant of APPWT. Format: binding. The procedure, abridged:
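Ki values were derived from IC50s (sigmoidal fits, ≥ triplicate), with probe Kd obtained by saturation titration of SD1/2. Peptides displaced a 25 nM TAMRA-labelled probe; polarization read at 530/580 nm in 1% BSA-containing PBS, pH 7.4, room temperature.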

Where [1] appears, read: Table 16, ncAAs incorporated peptides, read-out: Ki (nM) mean ± SEM.
Setting [2] is: Table 13, peptides for affinity maturation, read-out: Ki (nM) mean ± SEM.
Setting [3] is: Table 7, Ala-, D-amino acids and N-methylation scans of APPWT, read-out: Ki (nM) mean ± SEM.
[4] abbreviates: Table 10, deep mutational scanning validation variants of APPWT, read-out: Ki (nM) mean ± SEM.
[5] abbreviates: purified peptides, read-out: Ki.

The term Ki denotes the dissociation constant of the complex between target and ligand, obtained from inhibition or displacement. Take `CCOc1ccc(C[C@H](NC(=O)[C@H](Cc2c[nH]c3ccccc23)NC(=O)[C@H](Cc2c[nH]c3ccccc23)NC(=O)[C@@H](NC(=O)[C@H](CC(=O)O)NC(=O)[C@H](CO)NC(=O)[C@H](CC(=O)O)NC(=O)[C@H](CC(=O)O)NC(=O)[C@H](CCC(=O)O)NC(C)=O)C(C)C)C(=O)NCC(=O)N[C@@H](C)C(=O)N[C@@H](CC(=O)O)C(=O)N[C@H](C(=O)N[C@@H](CC(=O)O)C(N)=O)[C@@H](C)O)cc1` (Ac-EDDSDVWWY(Et)GADTD-NH2): the Ki under setting [1] is 113 ± 2 nM.

As for `COc1ccc(C[C@H](NC(=O)[C@H](Cc2c[nH]c3ccccc23)NC(=O)[C@H](Cc2c[nH]c3ccccc23)NC(=O)[C@@H](NC(=O)[C@H](CC(=O)O)NC(=O)[C@H](CO)NC(=O)[C@H](CC(=O)O)NC(=O)[C@H](CC(=O)O)NC(=O)[C@H](CCC(=O)O)NC(C)=O)C(C)C)C(=O)NCC(=O)N[C@@H](C)C(=O)N[C@@H](CC(=O)O)C(=O)N[C@H](C(=O)N[C@@H](CC(=O)O)C(N)=O)[C@@H](C)O)cc1` (Ac-EDDSDVWWY(Me)GADTD-NH2), under setting [1], the Ki was 109 ± 4 nM. Consider `CC(=O)N[C@@H](CCC(=O)O)C(=O)N[C@@H](CC(=O)O)C(=O)N[C@@H](CC(=O)O)C(=O)N[C@@H](CO)C(=O)N[C@@H](CC(=O)O)C(=O)N[C@H](C(=O)N[C@@H](Cc1c[nH]c2ccccc12)C(=O)N[C@@H](Cc1c[nH]c2ccccc12)C(=O)N[C@@H](Cc1ccc(O)cc1)C(=O)NCC(=O)N(C)CC(=O)N[C@@H](C)C(=O)N[C@@H](CC(=O)O)C(=O)N[C@H](C(=O)N[C@@H](CC(=O)O)C(N)=O)[C@@H](C)O)C(C)C` (Ac-EDDSDVWWYG[Sar]ADTD-NH2), for which the Ki under setting [2] is 164 ± 2 nM. On the same count and under the same terms, the figure for `CC(=O)N[C@@H](CCC(=O)O)C(=O)N[C@@H](CC(=O)O)C(=O)N[C@@H](CC(=O)O)C(=O)N[C@@H](CO)C(=O)N[C@@H](CC(=O)O)C(=O)N[C@H](C(=O)N[C@@H](Cc1c[nH]c2ccccc12)C(=O)N[C@@H](Cc1c[nH]c2ccccc12)C(=O)N[C@@H](Cc1ccc(O)cc1)C(=O)NCC(=O)N(C)CC(=O)N[C@H](C(=O)NCC(=O)N[C@@H](CC(=O)O)C(=O)N[C@@H](CCC(=O)O)C(=O)N[C@@H](CC(=O)O)C(N)=O)[C@@H](C)O)C(C)C` (Ac-EDDSDVWWYG[Sar]TGDED-NH2) is 138 ± 5 nM.

Consider `CC(=O)N[C@@H](CCC(=O)O)C(=O)N[C@@H](CC(=O)O)C(=O)N[C@@H](CC(=O)O)C(=O)N[C@@H](CO)C(=O)N[C@@H](CC(=O)O)C(=O)N[C@H](C(=O)N[C@@H](Cc1c[nH]c2ccccc12)C(=O)N[C@@H](Cc1c[nH]c2ccccc12)C(=O)N[C@@H](Cc1ccc(O)cc1)C(=O)N(C)CC(=O)N[C@@H](C)C(=O)N[C@@H](CC(=O)O)C(=O)N[C@H](C(=O)N[C@@H](CC(=O)O)C(N)=O)[C@@H](C)O)C(C)C` (Ac-EDDSDVWWY[Sar]ADTD-NH2), for which the inhibitory constant (Ki) under setting [2] was 201 ± 6 nM. The same measure, in the same setting: the result for `CC(=O)N[C@@H](CCC(=O)O)C(=O)N[C@@H](CC(=O)O)C(=O)N[C@@H](CC(=O)O)C(=O)N[C@@H](CO)C(=O)N[C@@H](CC(=O)O)C(=O)N[C@H](C(=O)N[C@@H](Cc1c[nH]c2ccccc12)C(=O)N[C@@H](Cc1c[nH]c2ccccc12)C(=O)N[C@@H](Cc1ccc(O)cc1)C(=O)N(C)CC(=O)N[C@H](C(=O)NCC(=O)N[C@@H](CC(=O)O)C(=O)N[C@@H](CCC(=O)O)C(=O)N[C@@H](CC(=O)O)C(N)=O)[C@@H](C)O)C(C)C` (Ac-EDDSDVWWY[Sar]TGDED-NH2) reads 142 ± 3 nM. As to `CC(=O)N[C@@H](CCC(=O)O)C(=O)N[C@@H](CC(=O)O)C(=O)N[C@@H](CC(=O)O)C(=O)N[C@@H](CO)C(=O)N[C@@H](CC(=O)O)C(=O)N[C@H](C(=O)N[C@@H](Cc1c[nH]c2ccccc12)C(=O)N[C@@H](Cc1c[nH]c2ccccc12)C(=O)N[C@@H](Cc1cccc2ccccc12)C(=O)NCC(=O)N[C@@H](C)C(=O)N[C@@H](CC(=O)O)C(=O)N[C@H](C(=O)N[C@@H](CC(=O)O)C(N)=O)[C@@H](C)O)C(C)C` (Ac-EDDSDVWW[1Nal]GADTD-NH2), under setting [1], the Ki is 114 ± 1 nM.

Turning to `CC(=O)N[C@@H](CCC(=O)O)C(=O)N[C@@H](CC(=O)O)C(=O)N[C@@H](CC(=O)O)C(=O)N[C@@H](CO)C(=O)N[C@@H](CC(=O)O)C(=O)N[C@H](C(=O)N[C@@H](Cc1c[nH]c2ccccc12)C(=O)N[C@@H](Cc1c[nH]c2ccccc12)C(=O)N[C@@H](Cc1ccc2ccccc2c1)C(=O)NCC(=O)N[C@@H](C)C(=O)N[C@@H](CC(=O)O)C(=O)N[C@H](C(=O)N[C@@H](CC(=O)O)C(N)=O)[C@@H](C)O)C(C)C` (Ac-EDDSDVWW[2Nal]GADTD-NH2), the Ki under setting [1] was 75 ± 1 nM. As for `CC(=O)N[C@@H](CCC(=O)O)C(=O)N[C@@H](CC(=O)O)C(=O)N[C@@H](CC(=O)O)C(=O)N[C@@H](CO)C(=O)N[C@@H](CC(=O)O)C(=O)N[C@H](C(=O)N[C@@H](Cc1c[nH]c2ccccc12)C(=O)N[C@@H](Cc1c[nH]c2ccccc12)C(=O)N(C)CC(=O)NCC(=O)N[C@@H](C)C(=O)N[C@@H](CC(=O)O)C(=O)N[C@H](C(=O)N[C@@H](CC(=O)O)C(N)=O)[C@@H](C)O)C(C)C` (Ac-EDDSDVWW[Sar]GADTD-NH2), the Ki under setting [3] is 18900 ± 554 nM. Consider `CC(=O)N[C@@H](CCC(=O)O)C(=O)N[C@@H](CC(=O)O)C(=O)N[C@@H](CC(=O)O)C(=O)N[C@@H](CO)C(=O)N[C@@H](CC(=O)O)C(=O)N[C@H](C(=O)N[C@@H](Cc1ccc(O)cc1)C(=O)N[C@@H](Cc1c[nH]c2ccccc12)C(=O)NCC(=O)NCC(=O)N[C@@H](C)C(=O)N[C@@H](CC(=O)O)C(=O)N[C@H](C(=O)N[C@@H](CC(=O)O)C(N)=O)[C@@H](C)O)C(C)C` (Ac-EDDSDVYWGGADTD-NH2), for which the Ki under setting [4] was 3600 ± 49 nM.

With `CC(=O)N[C@@H](CCC(=O)O)C(=O)N[C@@H](CC(=O)O)C(=O)N[C@@H](CC(=O)O)C(=O)N[C@@H](CO)C(=O)N[C@@H](CC(=O)O)C(=O)N(C)[C@H](C(=O)N[C@@H](Cc1c[nH]c2ccccc12)C(=O)N[C@@H](Cc1c[nH]c2ccccc12)C(=O)NCC(=O)NCC(=O)N[C@@H](C)C(=O)N[C@@H](CC(=O)O)C(=O)N[C@H](C(=O)N[C@@H](CC(=O)O)C(N)=O)[C@@H](C)O)C(C)C` (Ac-EDDSD[NMeV]WWGGADTD-NH2), the inhibition constant (Ki) under setting [3] was 12300 ± 375 nM. Consider `CC(=O)N[C@@H](CCC(=O)O)C(=O)N[C@@H](CC(=O)O)C(=O)N[C@@H](CC(=O)O)C(=O)N[C@@H](CO)C(=O)N[C@@H](Cc1ccccc1)C(=O)N[C@H](C(=O)N[C@@H](Cc1c[nH]c2ccccc12)C(=O)N[C@@H](Cc1c[nH]c2ccccc12)C(=O)NCC(=O)NCC(=O)N[C@@H](C)C(=O)N[C@@H](CC(=O)O)C(=O)N[C@H](C(=O)N[C@@H](CC(=O)O)C(N)=O)[C@@H](C)O)C(C)C` (Ac-EDDSFVWWGGADTD-NH2), for which the Ki under setting [4] was 142 ± 6 nM.

For `CC[C@H](C)[C@H](NC(=O)[C@H](CO)NC(=O)[C@H](CC(=O)O)NC(=O)[C@H](CC(=O)O)NC(=O)[C@H](CCC(=O)O)NC(C)=O)C(=O)N[C@H](C(=O)N[C@@H](Cc1c[nH]c2ccccc12)C(=O)N[C@@H](Cc1c[nH]c2ccccc12)C(=O)NCC(=O)NCC(=O)N[C@@H](C)C(=O)N[C@@H](CC(=O)O)C(=O)N[C@H](C(=O)N[C@@H](CC(=O)O)C(N)=O)[C@@H](C)O)C(C)C` (Ac-EDDSIVWWGGADTD-NH2), the Ki under setting [4] is 243 ± 3 nM. Take `CC(=O)N[C@@H](CCC(=O)O)C(=O)N[C@@H](CC(=O)O)C(=O)N[C@@H](CC(=O)O)C(=O)N[C@@H](CO)C(=O)N[C@@H](Cc1c[nH]c2ccccc12)C(=O)N[C@H](C(=O)N[C@@H](Cc1c[nH]c2ccccc12)C(=O)N[C@@H](Cc1c[nH]c2ccccc12)C(=O)NCC(=O)N(C)CC(=O)N[C@@H](C)C(=O)N[C@@H](CC(=O)O)C(=O)N[C@H](C(=O)N[C@@H](CC(=O)O)C(N)=O)[C@@H](C)O)C(C)C` (Ac-EDDSWVWWG[Sar]ADTD-NH2): the Ki under setting [2] is 36 ± 1 nM. As to `CC(=O)N[C@@H](CCC(=O)O)C(=O)N[C@@H](CC(=O)O)C(=O)N[C@@H](CC(=O)O)C(=O)N[C@@H](CO)C(=O)N[C@@H](Cc1ccc(OCc2ccccc2)cc1)C(=O)N[C@H](C(=O)N[C@@H](Cc1c[nH]c2ccccc12)C(=O)N[C@@H](Cc1c[nH]c2ccccc12)C(=O)NCC(=O)NCC(=O)N[C@@H](C)C(=O)N[C@@H](CC(=O)O)C(=O)N[C@H](C(=O)N[C@@H](CC(=O)O)C(N)=O)[C@@H](C)O)C(C)C` (Ac-EDDSY(Bn)VWWGGADTD-NH2), the “fold increased affinity compared to Asp207Trp” value is reported as 4 fold. Also, the Ki under setting [1] was 28 ± 1 nM. In addition, under setting [5], the Ki is 27.1 nM. The corresponding values for `CCOc1ccc(C[C@H](NC(=O)[C@H](CO)NC(=O)[C@H](CC(=O)O)NC(=O)[C@H](CC(=O)O)NC(=O)[C@H](CCC(=O)O)NC(C)=O)C(=O)N[C@H](C(=O)N[C@@H](Cc2c[nH]c3ccccc23)C(=O)N[C@@H](Cc2c[nH]c3ccccc23)C(=O)NCC(=O)NCC(=O)N[C@@H](C)C(=O)N[C@@H](CC(=O)O)C(=O)N[C@H](C(=O)N[C@@H](CC(=O)O)C(N)=O)[C@@H](C)O)C(C)C)cc1` (Ac-EDDSY(Et)VWWGGADTD-NH2) are 2 fold, 46 ± 2 nM and 46.3 nM. Regarding `COc1ccc(C[C@H](NC(=O)[C@H](CO)NC(=O)[C@H](CC(=O)O)NC(=O)[C@H](CC(=O)O)NC(=O)[C@H](CCC(=O)O)NC(C)=O)C(=O)N[C@H](C(=O)N[C@@H](Cc2c[nH]c3ccccc23)C(=O)N[C@@H](Cc2c[nH]c3ccccc23)C(=O)NCC(=O)NCC(=O)N[C@@H](C)C(=O)N[C@@H](CC(=O)O)C(=O)N[C@H](C(=O)N[C@@H](CC(=O)O)C(N)=O)[C@@H](C)O)C(C)C)cc1` (Ac-EDDSY(Me)VWWGGADTD-NH2), the Ki under setting [1] was 101 ± 4 nM. Regarding `CC(=O)N[C@@H](CCC(=O)O)C(=O)N[C@@H](CC(=O)O)C(=O)N[C@@H](CC(=O)O)C(=O)N[C@@H](CO)C(=O)N[C@@H](Cc1ccc(O)cc1)C(=O)N[C@H](C(=O)N[C@@H](Cc1c[nH]c2ccccc12)C(=O)N[C@@H](Cc1c[nH]c2ccccc12)C(=O)NCC(=O)NCC(=O)N[C@@H](C)C(=O)N[C@@H](CC(=O)O)C(=O)N[C@H](C(=O)N[C@@H](CC(=O)O)C(N)=O)[C@@H](C)O)C(C)C` (Ac-EDDSYVWWGGADTD-NH2), the Ki under setting [4] was 191 ± 10 nM.
